± gives the expanded uncertainty stated by the source.
Key:
[1] = Liquid; for Normal boiling temperature: Ebulliometric method (Recirculating still); for mass density: 298.15 K, 101.33 kPa, Vibrating tube method
[2] = refractive index (Na D-line) (dimensionless); conditions: 298.15 K; 101.33 kPa; Liquid; Standard Abbe refractometry

Normal boiling temperature [1] [°C] | refractive index [2] | mass density [1] [kg/m3] | SMILES
100.1 ± 1 | 1.3324 ± 0.0007 | – | O [water]
118.1 ± 1 | 1.3713 ± 0.0007 | 1049.42 ± 0.08 | CC(=O)O [acetic acid]
199.10 ± 0.2 | 1.4205 ± 0.0007 | 872.25 ± 0.24 | CCCCC(CC)COC(C)=O (stereo not drawn) [2-ethylhexyl acetate]
